Laboratory results as given in patent US10787454B2, “Imidazo[1,5-a]pyrimidinyl carboxamide compounds and their use in the treatment of medical disorders” (BIAL-BioTech Investments, Inc., priority 2016, dated 2020).
Converted amounts (≈) assume the structure as drawn.

Experiments:
[1] = target: T1, glucocerebrosidase (Gcase) (Homo sapiens, UniProt P04062); assay: Glucocerebrosidase (Gcase) activation assay, 4-methylumbelliferyl-beta-D-glucopyranoside substrate, with saposin C; assay type: biochemical; details: for Percent Gcase Activation, 1 μM Test Compound / activation at 1 µM: test compound at 1.0 μM; for activation at 0.1 µM: read-out: Percent Gcase Activation, 0.1 μM Test Compound; for activation at 1 µM: read-out: Percent Gcase Activation, 1 μM Test Compound
T1 sequence (P04062 40-536): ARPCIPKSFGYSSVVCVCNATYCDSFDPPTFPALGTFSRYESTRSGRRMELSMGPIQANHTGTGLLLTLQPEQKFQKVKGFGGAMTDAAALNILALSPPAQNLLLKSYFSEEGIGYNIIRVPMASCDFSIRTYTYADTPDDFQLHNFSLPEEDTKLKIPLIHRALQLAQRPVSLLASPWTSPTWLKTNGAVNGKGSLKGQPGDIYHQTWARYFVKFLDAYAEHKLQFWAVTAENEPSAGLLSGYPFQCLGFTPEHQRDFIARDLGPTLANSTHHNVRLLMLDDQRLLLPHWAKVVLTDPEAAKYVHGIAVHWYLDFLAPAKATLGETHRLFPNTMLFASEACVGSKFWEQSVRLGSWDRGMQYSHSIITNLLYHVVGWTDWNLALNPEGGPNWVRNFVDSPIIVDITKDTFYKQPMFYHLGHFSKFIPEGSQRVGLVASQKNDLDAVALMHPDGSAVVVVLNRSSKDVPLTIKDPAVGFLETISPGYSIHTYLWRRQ
Experimental: The ability of exemplary compounds to activate glucocerebrosidase (Gcase) was measured.
A 484 μL aliquot of a 1.0 mg/mL solution of phosphatidylserine (PS) (Sigma P7769) in chloroform was evaporated under a stream of nitrogen for 1 hour. The lipid film was dissolved over 4 minutes of vigorous vortexing in 40 mL of 176 mM K2HPO4/50 mM citric acid (pH 4.7) containing 7.5 μL of triton X-100, resulting in a mixed micellar preparation with a composition of 0.32 mM triton and 0.37 mol % PS. 4-Methylumbelliferyl-beta-D-glucopyranoside (ACROS-337025000) was dissolved in the micellar solution to a final concentration of 2 mM for use as the reaction substrate.
Test compounds were diluted to the desired concentrations with dimethylsulfoxide (DMSO) from 10 mM stocks, and 0.41 μL of the DMSO compound mixture was added to 100 μL of micellar solution containing 10 nM GCase and 100 nM saposin C (Enzo ALX-201-262-C050). Pre-incubation was allowed to occur for 30 minutes at room temperature, after which the reaction was initiated by combining 25 μL of substrate solution with 25 μL of compound/GCase/saposin mixture. The reaction proceeded for 15 minutes at room temperature and was stopped by adding 150 μL of 1M glycine, pH 12.5. The endpoint of the reaction was monitored by measuring fluorescence intensity (excitation: 365 nm; emission: 440 nm) on a SpectraMax i3 instrument (Molecular Devices). Test compounds were screened at 1.0 and 0.1 μM final concentration, and subsequent 8-point dose response curves were obtained using 3-fold dilutions from a maximum final concentration of 5 μM.

[2] = Compound solubility in water; assay type: physicochemical

Cc1cc(C)n2cnc(C(=O)NC(C)C3CCCCC3)c2n1 (stereo not shown) [III-9]
Percent Gcase Activation, 1 μM Test Compound [1]: +++ (Gcase activation greater than 60%)

Cc1cc(C)n2cnc(C(=O)NC(C)C3CCCCC3)c2n1 (stereo not shown) [III-10]
Percent Gcase Activation, 0.1 μM Test Compound ([1]; test compound at 0.1 μM): ** (Gcase activation in the range of 10% up to 20%) | Percent Gcase Activation, 1 μM Test Compound [1]: +++ (Gcase activation greater than 60%) | Compound Solubility in Water [2]: 0.023 mg/mL

Cc1cc(N)nc2c(C(=O)NC(c3ccc(F)cc3)C(F)(F)F)ncn12 (stereo not shown) [III-17]
activation at 0.1 µM ([1]; test compound at 0.1 μM): > 20% | activation at 1 µM [1]: > 60% | solubility [2]: 0.0009 mg/mL (≈ 2.45 µM)

Cc1cc(Oc2ccc(F)cc2)nc2c(C(=O)N[C@@H](C)C3CC3)ncn12 [III-77]
activation at 0.1 µM ([1]; test compound at 0.1 μM): < 10% | activation at 1 µM [1]: 30 to 60% | solubility [2]: 0.0106 mg/mL (≈ 29.9 µM)
